Reference: patent US20070033677A1, “Plant sHSP gene bidirectional promoter and uses thereof” (National Taiwan University, priority 2005, published 2007)

Assays:
[1] = system: bidirectional promoter of SEQ ID NO:5; settings: 5% ethanol treatment; control coleoptiles under 28° C.; FIG. 3B
Method: (§1) The coleoptile of a etiolated rice seedling was cut from embryonic root and positioned on the middle of a 10-cm Petri dish containing MS salts supplemented with 0.6% (w/v) agarose and 3% (w/v) sucrose. The mixture (in a 1:1 molar ratio) of a test DNA construct and a maize ubiquitin-luciferase internal control construct were coated onto the gold particles as follows: under continuous vortexing, the following were added in order to each […] of 3 mg gold particles (Shen et al., 1996): 5 μL of DNA (1 μg DNA), 10 μL of 2.5 M CaCl2, and 4 μL of 0.1 M spermidine (free-based, tissue-culture grade). Gold microcarriers (1.6-μm particle size, 30 mg) in a microcentrifuge tube were vortexed with […] 70% (v/v) ethanol for 3˜5 minutes and kept till precipitation for about 15 minutes. Then, after centrifuging for 5 seconds, the supernatant was discarded and washed three times with 1 ml of sterile de-ionized water. The gold particles were resuspended in 500 μL 50% (w/v) glycerol, and then dispensed in 50-μL aliquots (3 mg/50 μL) kept in −20° C. The gold particles coated with DNA were pelleted in an bench-top Eppendorf centrifuge at maximum speed for 5 seconds, discarded the supernatant, washed once with 70% (v/v) ethanol following by absolute ethanol, and resuspended in 20 μL absolute ethanol. […]

Oshsp18.0 promoter = assay: Transient expression GUS activity assay, Oshsp18.0 promoter::GUS construct bombarded to rice coleoptiles; assay type: cell-based, Rice (Oryza sativa L. cv. Tainung No. 67); settings: 5 mM Aze, 4 hours treatment; GUS normalized against luciferase internal control; FIG. 3A
Method: as §1

Oshsp17.3 promoter = assay: Transient expression GUS activity assay, Oshsp17.3 promoter::GUS construct bombarded to rice coleoptiles; assay type: cell-based, Rice (Oryza sativa L. cv. Tainung No. 67); settings: 5 mM Aze, 4 hours treatment; GUS normalized against luciferase internal control; FIG. 3A
Method: as §1

SMILES | expression of reporter gene (GUS staining) [1] | induction of promoter (normalized GUS activity) (Oshsp18.0 promoter) | induction of promoter (normalized GUS activity) (Oshsp17.3 promoter)
CCO [ethanol] | much more amount of reporter gene | – | –
O=C(O)C1CCN1 (stereo not drawn) [Aze] | – | at least 7 fold | at least 7 fold
